This is an account of results in US20210214375A1 (LUNDBECK LA JOLLA RESEARCH CENTER, INC., priority 2017, published 2021).

The target of this assay is T1, MAGL (Homo sapiens, UniProt Q99685).
T1 construct: Proteomes (human prefrontal cortex or cell membrane fractions); from tissue
T1 sequence (Q99685 1-303): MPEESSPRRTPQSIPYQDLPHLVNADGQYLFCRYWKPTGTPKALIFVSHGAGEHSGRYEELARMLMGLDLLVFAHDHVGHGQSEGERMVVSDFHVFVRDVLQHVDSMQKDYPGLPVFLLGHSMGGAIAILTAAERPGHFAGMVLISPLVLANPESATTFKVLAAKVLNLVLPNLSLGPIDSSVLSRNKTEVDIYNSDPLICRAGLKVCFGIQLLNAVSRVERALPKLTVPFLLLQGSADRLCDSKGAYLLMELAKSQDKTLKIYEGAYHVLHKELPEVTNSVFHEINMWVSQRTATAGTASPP
In words: In vitro competitive activity-based protein profiling (gel-based, FP-Rh or HT-01 probe). It is filed as biochemical. As to the method: Compounds are tested to assess their MAGL and serine hydrolase activity using the following in vitro and in vivo assays.
Proteomes (human prefrontal cortex or cell membrane fractions) (50 μL, 1.0 mg/mL total protein concentration) were preincubated with varying concentrations of inhibitors at 37° C. After 30 min, FP—Rh or HT-01 (1.0 μL, 50 μM in DMSO) was added and the mixture was incubated for another 30 min at room temperature. Reactions were quenched with SDS loading buffer (15 μL-4×) and run on SDS-PAGE.

Where [1] appears, read: PC3 proteome, read-out: IC50 MGLL PC3 (Human).
Where [2] appears, read: PFC (prefrontal cortex) proteome.

Like-named read-outs stand apart in the source and are kept apart here.

For orientation: IC50 means the concentration that gives 50% inhibition. Consider `O=C(O)C1CN(c2cc(CN3CC4(CCN(C(=O)OC(C(F)(F)F)C(F)(F)F)CC4)C3)cc(C(F)(F)F)c2)CCO1` (stereo not shown) [Example 100, 4-(3-((7-(((1,1,1,3,3,3-Hexafluoropropan-2-yl)oxy)carbonyl)-2,7-diazaspiro[3.5]nonan-2-yl)methyl)-5-(trifluoromethyl)phenyl)morpholine-2-carboxylic acid], for which the IC50 under setting [1] is < 100 nM.

Turning to `O=C(O)C1CCN(c2cc(C(F)(F)F)ccc2CN2CC3(CCN(C(=O)OC(C(F)(F)F)C(F)(F)F)CC3)C2)C1` (stereo not shown) [Example 101, 1-(2-((7-(((1,1,1,3,3,3-Hexafluoropropan-2-yl)oxy)carbonyl)-2,7-diazaspiro[3.5]nonan-2-yl)methyl)-5-(trifluoromethyl)phenyl)pyrrolidine-3-carboxylic acid], the 50% inhibitory concentration (IC50) under setting [1] was < 100 nM. The same measure, in the same setting: in the case of `O=C(O)C1CCN(c2cc(C(F)(F)F)ccc2CN2CC3(CCN(C(=O)OC(C(F)(F)F)C(F)(F)F)CC3)C2)CC1` [Example 102, 1-(2-((7-(((1,1,1,3,3,3-Hexafluoropropan-2-yl)oxy)carbonyl)-2,7-diazaspiro[3.5]nonan-2-yl)methyl)-5-(trifluoromethyl)phenyl)piperidine-4-carboxylic acid] it was < 100 nM. As to `O=C(O)C1COCCN1c1cc(CN2CC3(CCN(C(=O)OC(C(F)(F)F)C(F)(F)F)CC3)C2)cc(C(F)(F)F)c1` (stereo not shown) [Example 103, 4-(3-((7-(((1,1,1,3,3,3-Hexafluoropropan-2-yl)oxy)carbonyl)-2,7-diazaspiro[3.5]nonan-2-yl)methyl)-5-(trifluoromethyl)phenyl)morpholine-3-carboxylic acid], the IC50 under setting [1] was < 100 nM. For `O=C(O)[C@@H]1CCCN(c2cc(C(F)(F)F)ccc2CN2CC3(CCN(C(=O)OC(C(F)(F)F)C(F)(F)F)CC3)C2)C1` [Example 107, (R)-1-(2-((7-(((1,1,1,3,3,3-Hexafluoropropan-2-yl)oxy)carbonyl)-2,7-diazaspiro[3.5]nonan-2-yl)methyl)-5-(trifluoromethyl)phenyl)piperidine-3-carboxylic acid], under setting [1], the IC50 is < 100 nM.

With `O=C(OC(C(F)(F)F)C(F)(F)F)N1CCC2(CC1)CCN(C(=O)c1ccc(C(F)(F)F)c(Cl)c1)C2` [Example 109, 1,1,1,3,3,3-Hexafluoropropan-2-yl 2-(3-chloro-4-(trifluoromethyl)benzoyl)-2,8-diazaspiro[4.5]decane-8-carboxylate], the concentration for half-maximal inhibition (IC50) under setting [1] was < 100 nM.

On to `O=C(OC(C(F)(F)F)C(F)(F)F)N1CCC2(CC1)CCN(C(=O)c1cc(Cl)cc(C(F)(F)F)c1)C2` [Example 110, 1,1,1,3,3,3-Hexafluoropropan-2-yl 2-(3-chloro-5-(trifluoromethyl)benzoyl)-2,8-diazaspiro[4.5]decane-8-carboxylate], for which, under setting [1], the IC50 was < 100 nM. The same measure, in the same setting: in the case of `O=C(O)[C@H]1CCCN(c2cc(C(F)(F)F)ccc2CN2CC3(CCN(C(=O)OC(C(F)(F)F)C(F)(F)F)CC3)C2)C1` [Example 111, (S)-1-(2-((7-(((1,1,1,3,3,3-hexafluoropropan-2-yl)oxy)carbonyl)-2,7-diazaspiro[3.5]nonan-2-yl)methyl)-5-(trifluoromethyl)phenyl)piperidine-3-carboxylic acid] it was < 100 nM.

For `CC1(C(=O)O)CCN(c2cc(C(F)(F)F)ccc2CN2CC3(CCN(C(=O)OC(C(F)(F)F)C(F)(F)F)CC3)C2)C1` (stereo not shown) [Example 115, 1-(2-((7-(((1,1,1,3,3,3-Hexafluoropropan-2-yl)oxy)carbonyl)-2,7-diazaspiro[3.5]nonan-2-yl)methyl)-5-(trifluoromethyl)phenyl)-3-methylpyrrolidine-3-carboxylic acid], under setting [1], the IC50 was < 100 nM. Still for that read-out and setting: as for `O=C(OC(C(F)(F)F)C(F)(F)F)N1CCC2(CC1)CCN(C(=O)c1ccc(C(F)(F)F)cc1Cl)C2` [Example 119, 1,1,1,3,3,3-Hexafluoropropan-2-yl 2-(2-chloro-4-(trifluoromethyl)benzoyl)-2,8-diazaspiro[4.5]decane-8-carboxylate], the figure is < 100 nM; as for `O=C(O)C1CCCCN1c1cc(CN2CC3(CCN(C(=O)OC(C(F)(F)F)C(F)(F)F)CC3)C2)cc(C(F)(F)F)c1` (stereo not shown) [Example 120, 1-(3-((7-(((1,1,1,3,3,3-Hexafluoropropan-2-yl)oxy)carbonyl)-2,7-diazaspiro[3.5]nonan-2-yl)methyl)-5-(trifluoromethyl)phenyl)piperidine-2-carboxylic acid], < 100 nM. `CC1(C(=O)O)CCN(c2cc(CN3CC4(CCN(C(=O)OC(C(F)(F)F)C(F)(F)F)CC4)C3)cc(C(F)(F)F)c2)C1` (stereo not shown) [Example 121, 1-(3-((7-(((1,1,1,3,3,3-Hexafluoropropan-2-yl)oxy)carbonyl)-2,7-diazaspiro[3.5]nonan-2-yl)methyl)-5-(trifluoromethyl)phenyl)-3-methylpyrrolidine-3-carboxylic acid]: the IC50 under setting [1] was < 100 nM. Same read-out and setting: as for `O=C(O)C1CCN(c2cc(Cl)ccc2CN2CC3(CCN(C(=O)OC(C(F)(F)F)C(F)(F)F)CC3)C2)CC1` [Example 122, 1-(5-Chloro-2-((7-(((1,1,1,3,3,3-hexafluoropropan-2-yl)oxy)carbonyl)-2,7-diazaspiro[3.5]nonan-2-yl)methyl)phenyl) piperidine-4-carboxylic acid], the figure is < 100 nM; as for `O=C(O)C1CCN(c2cc(F)ccc2CN2CC3(CCN(C(=O)OC(C(F)(F)F)C(F)(F)F)CC3)C2)CC1` [Example 123, 1-(5-Fluoro-2-((7-(((1,1,1,3,3,3-hexafluoropropan-2-yl)oxy)carbonyl)-2,7-diazaspiro[3.5]nonan-2-yl)methyl)phenyl) piperidine-4-carboxylic acid], 100 to 1000 nM; as for `O=C(O)c1ccc(CN2CC3(CCN(C(=O)OC(C(F)(F)F)C(F)(F)F)CC3)C2)cc1C(F)(F)F` [Example 131, 4-((7-(((1,1,1,3,3,3-Hexafluoropropan-2-yl)oxy)carbonyl)-2,7-diazaspiro[3.5]nonan-2-yl)methyl)-2-(trifluoromethyl) benzoic acid], 100 to 1000 nM. Take `CN(Cc1ccc(Cl)cc1N1CCC(C(=O)O)CC1)C1(C)CCN(C(=O)OC(C(F)(F)F)C(F)(F)F)CC1` [Example 135, 1-(5-Chloro-2-(((1-(((1,1,1,3,3,3-hexafluoropropan-2-yl)oxy)carbonyl)-4-methylpiperidin-4-yl)(methyl)amino)methyl)phenyl) piperidine-4-carboxylic acid]: the “% Inh MGLL PFC (Human, μM)” value under setting [2] is “### (### is ≥ 75%)”. Consider `CN(Cc1ccc(C(F)(F)F)cc1OCC(=O)O)C1(C)CCN(C(=O)OC(C(F)(F)F)C(F)(F)F)CC1` [Example 136, 2-(2-(((1-(((1,1,1,3,3,3-Hexafluoropropan-2-yl)oxy)carbonyl)-4-methylpiperidin-4-yl)(methyl)amino)methyl)-5-(trifluoromethyl)phenoxy)acetic acid], for which the half-maximal inhibitory concentration (IC50) under setting [1] was < 100 nM. The “% Inh MGLL PFC (Human, μM)” value under setting [2] is reported as “### (### is ≥ 75%)”.

On to `CN(Cc1cc(C(F)(F)F)cc(C2(C(=O)O)CCCC2)c1)C1(C)CCN(C(=O)OC(C(F)(F)F)C(F)(F)F)CC1` [Example 138, 1-(3-{[(1-{[(1,1,1,3,3,3-Hexafluoropropan-2-yl)oxy]carbonyl}-4-methylpiperidin-4-yl)(methyl)amino]methyl}-5-(trifluoromethyl)phenyl)cyclopentane-1-carboxylic acid], for which the “% Inh MGLL PFC (Human, μM)” value under setting [2] is on record as “### (### is ≥ 75%)”. The IC50 (PFC (prefrontal cortex) proteome, read-out: IC50 MGLL PFC (Human)) is < 100 nM. As for `CC(C)(C#Cc1cc(CN2CCCC23CCN(C(=O)OC(C(F)(F)F)C(F)(F)F)CC3)cc(C(F)(F)F)c1)C(=O)O` [Example 140, 4-{3-[(8-{[(1,1,1,3,3,3-Hexafluoropropan-2-yl)oxy]carbonyl}-1,8-dazaspiro[4.5]decan-1-yl)methyl]-5-(trifluoromethyl)phenyl]-2,2-dimethylbut-3-ynoic acid], the half-maximal inhibitory concentration (IC50) under setting [1] is < 100 nM. `CN(Cc1cccc(F)c1C1(C(=O)O)CCCC1)C1(C)CCN(C(=O)OC(C(F)(F)F)C(F)(F)F)CC1` [Example 144, 1-(2-Fluoro-6-{[(1-{[(1,1,1,3,3,3-hexafluoropropan-2-yl)oxy]carbonyl}-4-methylpiperidin-4-yl)(methyl)amino]methyl}phenyl) cyclopentane-1-carboxylic acid]: under setting [1], the IC50 is < 100 nM. In addition, the “% Inh MGLL PFC (Human, μM)” value under setting [2] is “### (### is ≥ 75%)”. On the same counts, the results for `CC(C)(C#Cc1ccccc1CN1CCCC12CCN(C(=O)OC(C(F)(F)F)C(F)(F)F)CC2)C(=O)O` [Example 145, 4-{2-[(8-{[(1,1,1,3,3,3-Hexafluoropropan-2-yl)oxy]carbonyl}-1,8-diazaspiro[4.5]decan-1-yl)methyl]phenyl]-2,2-dimethylbut-3-ynoic acid] are 100 to 1000 nM and “### (### is ≥ 75%)”. Regarding `CC1(OCc2ccc(Cl)cc2C2(C(=O)O)CCCC2)CCN(C(=O)OC(C(F)(F)F)C(F)(F)F)CC1` [Example 146, 1-(5-Chloro-2-{[(1-{[(1,1,1,3,3,3-hexafluoropropan-2-yl)oxy]carbonyl}-4-methylpiperidin-4-yl)oxy]methyl}phenyl) cyclopentane-1-carboxylic acid], the IC50 under setting [1] is < 100 nM. The “% Inh MGLL PFC (Human, μM)” value under setting [2] is listed as “### (### is ≥ 75%)”.

Take `O=C(O)C1CCN(c2cc(CN3CCC4(CC3)CCN(C(=O)OC(C(F)(F)F)C(F)(F)F)C4)ccc2C(F)(F)F)CC1` [Example 221]: the IC50 under setting [1] is < 100 nM.
